According to US9708314B2, “Heterocyclic amide compound” (NISSAN CHEMICAL INDUSTRIES, LTD., priority 2013, dated 2017):

What was measured:
Format in all cases: in vivo
Monochoria vaginalis [1] = experiment: Test Example 1: herbicidal activity, application before weed generation in submerged conditions; details: Seventeenth Table; for C: Monochoria vaginalis (herbicidal effect grade): Application herbicide amount 320 g/ha; for C (Monochoria vaginalis) herbicidal ratio grade: application herbicide amount 320 g/ha
Procedure, shortened: (§1)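 Pre-emergence application to water surface of submerged pots (4 cm depth, alluvial soil) on sowing day, with 2.5-leaf rice transplanted; emulsion diluted to g/ha rates. Grown in greenhouse at 25–30 °C; 0–5 herbicidal/crop-effect score after three weeks.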

Scirpus juncoides [2] = experiment: as above; details: Seventeenth Table; for B: Scirpus juncoides (herbicidal effect grade): Application herbicide amount 320 g/ha; for B (Scirpus juncoides) herbicidal ratio grade: application herbicide amount 320 g/ha
Procedure, shortened: as §1

[3] = tested on: transplanted Oryza sativa; experiment: Test Example 1: effect on crop, application before weed generation in submerged conditions; details: Seventeenth Table; for a: transplanted Oryza sativa (effect on crop grade): Application herbicide amount 320 g/ha; for a (transplanted Oryza sativa) effect on crop grade: application herbicide amount 320 g/ha
Procedure, shortened: as §1

[4] = tested on: Echinochloa oryzacola Vasing.; experiment: Test Example 2: herbicidal activity, application during weed generation in submerged conditions; details: Eighteenth Table; application herbicide amount 320 g/ha
Procedure, shortened: (§2)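 Mixed sowings in flooded alluvial soil (4 cm water), greenhouse 25-30 °C; emulsifiable concentrate diluted in water applied to the water surface at the 1-2 leaf stage, rate in g/ha. Effect scored three weeks later on a 0-5 scale (5 = ≥90% herbicidal ratio, 0 = ≤5%).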

Monochoria vaginalis [5] = experiment: as above; details: Eighteenth Table; application herbicide amount 320 g/ha
Procedure, shortened: as §2

Scirpus juncoides [6] = experiment: as above; details: Eighteenth Table; application herbicide amount 320 g/ha
Procedure, shortened: as §2

Cyperus difformis = experiment: Test Example 3: herbicidal effect by application to foliage (Wagner pot, water depth 0.1-0.5 cm); details: Nineteenth Table; application to foliage; application herbicide amount 320 g/ha
Procedure, shortened: (§3)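 Plants are raised 14 days from seed in flooded-surface Wagner pots at 25–30 °C, sprayed on stems and leaves with diluted emulsion at a predetermined rate, and rated three weeks on using a 0–5 herbicidal-ratio scale (5 ≥90%).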

[7] = tested on: Echinochloa crus-galli var. crus-galli; experiment: as above; details: Nineteenth Table; application to foliage; application herbicide amount 320 g/ha
Procedure, shortened: as §3

Leptochloa chinensis = experiment: as above; details: Nineteenth Table; application to foliage; application herbicide amount 320 g/ha
Procedure, shortened: as §3

[8] = tested on: Echinochloa oryzacola Vasing.; experiment: Test Example 1: herbicidal activity, application before weed generation in submerged conditions; details: Seventeenth Table; for A: Echinochloa oryzicola Vasing. (herbicidal effect grade): Application herbicide amount 320 g/ha; for A (Echinochloa oryzicola Vasing.) herbicidal ratio grade: application herbicide amount 320 g/ha
Procedure, shortened: as §1

| Compound | C: Monochoria vaginalis (herbicidal effect grade) (Monochoria vaginalis [1]) | B: Scirpus juncoides (herbicidal effect grade) (Scirpus juncoides [2]) | a: transplanted Oryza sativa (effect on crop grade) [3] | A (Echinochloa oryzicola Vasing.) herbicidal ratio grade [4] | C (Monochoria vaginalis) herbicidal ratio grade (Monochoria vaginalis [5]) | B (Scirpus juncoides) herbicidal ratio grade (Scirpus juncoides [6]) | E (herbicidal effect grade) (Cyperus difformis) | H (herbicidal effect grade) [7] | D (herbicidal effect grade) (Leptochloa chinensis) | A: Echinochloa oryzicola Vasing. (herbicidal effect grade) [8] | A (Echinochloa oryzicola Vasing.) herbicidal ratio grade [8] | C (Monochoria vaginalis) herbicidal ratio grade (Monochoria vaginalis [1]) | B (Scirpus juncoides) herbicidal ratio grade (Scirpus juncoides [2]) | a (transplanted Oryza sativa) effect on crop grade [3] |
| --- | --- | --- | --- | --- | --- | --- | --- | --- | --- | --- | --- | --- | --- | --- |
| O=C(Nc1nnco1)c1ccc(C(F)(F)F)n2c(SCc3ccc(Cl)nc3)nnc12 [1-157] | 2 (Herbicidal ratio of 20% or more and less than 40%) | 3 (Herbicidal ratio of 40% or more and less than 70%) | 2 (Herbicidal ratio of 20% or more and less than 40%) | 0 (Herbicidal ratio of 5% or less (almost no effect)) | 0 (Herbicidal ratio of 5% or less (almost no effect)) | 1 (Herbicidal ratio of 5% or more and less than 20%) | 4 (Herbicidal ratio of 70% or more and less than 90%) | 4 (Herbicidal ratio of 70% or more and less than 90%) | 3 (Herbicidal ratio of 40% or more and less than 70%) |  |  |  |  |  |
| COc1cc(OC)cc(-c2nnc3c(C(=O)Nc4nnnn4C)ccc(C(F)(F)F)n23)c1 [2-063] | 5 (Herbicidal ratio of 90% or more (almost completely withered)) |  | 4 (Herbicidal ratio of 70% or more and less than 90%) | 5 (Herbicidal ratio of 90% or more (almost completely withered)) | 5 (Herbicidal ratio of 90% or more (almost completely withered)) | 4 (Herbicidal ratio of 70% or more and less than 90%) | 5 (Herbicidal ratio of 90% or more (almost completely withered)) | 5 (Herbicidal ratio of 90% or more (almost completely withered)) | 5 (Herbicidal ratio of 90% or more (almost completely withered)) | 5 (Herbicidal ratio of 90% or more (almost completely withered)) |  |  |  |  |
| C=CCN(C)c1nnc2c(C(=O)Nc3nnco3)ccc(C(F)(F)F)n12 [1-172] | 3 (Herbicidal ratio of 40% or more and less than 70%) | 4 (Herbicidal ratio of 70% or more and less than 90%) | 1 (Herbicidal ratio of 5% or more and less than 20%) | 3 (Herbicidal ratio of 40% or more and less than 70%) | 3 (Herbicidal ratio of 40% or more and less than 70%) | 4 (Herbicidal ratio of 70% or more and less than 90%) |  | 5 (Herbicidal ratio of 90% or more (almost completely withered)) | 5 (Herbicidal ratio of 90% or more (almost completely withered)) | 5 (Herbicidal ratio of 90% or more (almost completely withered)) |  |  |  |  |
| O=C(Nc1nnco1)c1ccc(C(F)(F)F)n2c(SC3CCCC3)nnc12 [1-155] | 3 (Herbicidal ratio of 40% or more and less than 70%) | 4 (Herbicidal ratio of 70% or more and less than 90%) | 0 (Herbicidal ratio of 5% or less (almost no effect)) | 1 (Herbicidal ratio of 5% or more and less than 20%) | 0 (Herbicidal ratio of 5% or less (almost no effect)) | 2 (Herbicidal ratio of 20% or more and less than 40%) | 5 (Herbicidal ratio of 90% or more (almost completely withered)) | 1 (Herbicidal ratio of 5% or more and less than 20%) | 2 (Herbicidal ratio of 20% or more and less than 40%) |  |  |  |  |  |
| C=CCSc1nnc2c(C(=O)Nc3nnnn3C)ccc(C(F)(F)F)n12 [2-102] |  |  |  | 4 (Herbicidal ratio of 70% or more and less than 90%) | 4 (Herbicidal ratio of 70% or more and less than 90%) | 4 (Herbicidal ratio of 70% or more and less than 90%) |  | 5 (Herbicidal ratio of 90% or more (almost completely withered)) | 4 (Herbicidal ratio of 70% or more and less than 90%) |  | 5 (Herbicidal ratio of 90% or more (almost completely withered)) | 4 (Herbicidal ratio of 70% or more and less than 90%) | 5 (Herbicidal ratio of 90% or more (almost completely withered)) | 1 (Herbicidal ratio of 5% or more and less than 20%) |
| C=CCN(C)c1nnc2c(C(=O)Nc3nnnn3C)ccc(C(F)(F)F)n12 [2-100] |  |  |  | 4 (Herbicidal ratio of 70% or more and less than 90%) | 4 (Herbicidal ratio of 70% or more and less than 90%) | 3 (Herbicidal ratio of 40% or more and less than 70%) |  | 5 (Herbicidal ratio of 90% or more (almost completely withered)) | 5 (Herbicidal ratio of 90% or more (almost completely withered)) |  | 5 (Herbicidal ratio of 90% or more (almost completely withered)) | 5 (Herbicidal ratio of 90% or more (almost completely withered)) | 5 (Herbicidal ratio of 90% or more (almost completely withered)) | 3 (Herbicidal ratio of 40% or more and less than 70%) |
| Cc1nnc(NC(=O)c2ccc(C(F)(F)F)n3c(SC4CCCC4)nnc23)o1 [1-154] | 2 (Herbicidal ratio of 20% or more and less than 40%) | 3 (Herbicidal ratio of 40% or more and less than 70%) | 0 (Herbicidal ratio of 5% or less (almost no effect)) | 0 (Herbicidal ratio of 5% or less (almost no effect)) | 0 (Herbicidal ratio of 5% or less (almost no effect)) | 2 (Herbicidal ratio of 20% or more and less than 40%) | 4 (Herbicidal ratio of 70% or more and less than 90%) | 3 (Herbicidal ratio of 40% or more and less than 70%) | 2 (Herbicidal ratio of 20% or more and less than 40%) |  |  |  |  |  |
| CC(C)Nc1nnc2c(C(=O)Nc3nnnn3C)ccc(C(F)(F)F)n12 [2-066] | 4 (Herbicidal ratio of 70% or more and less than 90%) | 5 (Herbicidal ratio of 90% or more (almost completely withered)) | 3 (Herbicidal ratio of 40% or more and less than 70%) | 3 (Herbicidal ratio of 40% or more and less than 70%) | 3 (Herbicidal ratio of 40% or more and less than 70%) |  | 5 (Herbicidal ratio of 90% or more (almost completely withered)) | 5 (Herbicidal ratio of 90% or more (almost completely withered)) | 5 (Herbicidal ratio of 90% or more (almost completely withered)) | 5 (Herbicidal ratio of 90% or more (almost completely withered)) |  |  |  |  |
| Cc1nnc(NC(=O)c2ccc(C(F)(F)F)n3c(SCc4ccc(Cl)nc4)nnc23)o1 [1-156] | 0 (Herbicidal ratio of 5% or less (almost no effect)) | 2 (Herbicidal ratio of 20% or more and less than 40%) | 0 (Herbicidal ratio of 5% or less (almost no effect)) | 0 (Herbicidal ratio of 5% or less (almost no effect)) | 2 (Herbicidal ratio of 20% or more and less than 40%) | 3 (Herbicidal ratio of 40% or more and less than 70%) | 2 (Herbicidal ratio of 20% or more and less than 40%) | 3 (Herbicidal ratio of 40% or more and less than 70%) | 2 (Herbicidal ratio of 20% or more and less than 40%) |  |  |  |  |  |
| Cn1nnnc1NC(=O)c1ccc(C(F)(F)F)n2c(-c3cc(Cl)cc(Cl)c3)nnc12 [2-064] | 2 (Herbicidal ratio of 20% or more and less than 40%) |  | 3 (Herbicidal ratio of 40% or more and less than 70%) | 3 (Herbicidal ratio of 40% or more and less than 70%) | 3 (Herbicidal ratio of 40% or more and less than 70%) | 4 (Herbicidal ratio of 70% or more and less than 90%) | 5 (Herbicidal ratio of 90% or more (almost completely withered)) | 1 (Herbicidal ratio of 5% or more and less than 20%) | 4 (Herbicidal ratio of 70% or more and less than 90%) | 5 (Herbicidal ratio of 90% or more (almost completely withered)) |  |  |  |  |
